System: MMP-1
Test: MMP-1 ELISA assay: inhibition of MMP-1 production in UVB-irradiated human skin fibroblasts
Assay type: cell-based
Conditions: HS68 cells; for MMP-1 (%): untreated control = 100, UVB group = 463.00
Protocol: The MMP-1 ELISA assay was performed to confirm the effect of the composition of Example 1 and Comparative Example 1 on the inhibition of MMP-1 production, which is a skin tissue degrading enzyme, in UVB-irradiated human skin fibroblasts.
Specifically, HS68 cells, which are human skin fibroblasts, were seeded in a 48-well plate at a concentration of 2×10^4 cells/well, and then cultured in a DMEM medium (WelGene) containing 10% fetal bovine serum (FBS, WelGene) and 1% penicillin/streptomycin under a condition of 37° C. and 5% CO2. Then, the medium was removed and washed with DPBS (Dulbecco's Phosphate-Buffered Saline). Then, the cells from Example 1 and Comparative Example 1 diluted by concentration (125 ppm, 250 ppm, 500 ppm) in a DMEM medium containing no fetal bovine serum (FBS) and pretreated for 6 hours. Then, the medium was removed and was filled with 100 μl of DPBS, and then was irradiated at UVB 30 mJ/cm^2. The cells from Example 1 and Comparative Example 1 were diluted by concentration (250 ppm, 500 ppm) in a DMEM medium containing no fetal bovine serum (FBS), treated and cultured for 48 hours. After collecting the medium of the cultured cells, the amount of MMP-1 secretion was measured using a human MMP-1 ELISA kit (R&D Systems), and the absorbance was measured at 450 nm using an ELISA reader (Infinite M200Pro, Tecan). The cells attached to the bottom of the plate were washed with DPBS, lysed with 1N NaOH, and the amount of protein was measured using a BCA assay (Pierce® BCA protein assay kit, Thermo Scientific). The amount of MMP-1 secretion per certain protein was corrected and expressed as a percentage (%). As a positive control group, 1 μM and 10 μM of retinoic acid (RA) were used. Statistical significance between samples was used by the student's t-test and was analyzed to be statistically significant when the p-value was 0.05 or less (* P<0.05, ** p<0.01, *** p<0.001).

## CC1=C(/C=C/C(C)=C/C=C/C(C)=C/C(=O)O)C(C)(C)CCC1 [RA, retinoic acid]
UVB 30 mJ/cm^2, 1 μM
  reduction of MMP-1 secretion as compared to the UVB irradiation group: 111.06%
  MMP-1 (%): 351.95 ± 22.95%
UVB 30 mJ/cm^2, 10 μM
  reduction of MMP-1 secretion as compared to the UVB irradiation group: 239.71%
  MMP-1 (%): 223.29 ± 114.85%
